# Test results reported in patent US6444617B1, “Fused-heterocycle dicarboxylic acid diamide derivatives or salts thereof, herbicide and usage thereof” (Nihon Nohyaku Co., Ltd., priority 1998, dated 2002).
# Columns and labels:
# Assay type in all cases: in vivo
# soybean plant (So) = assay: Test Example 3: phytotoxicity to upland crop plants, treatment before emergence; conditions: dosage 5 kg/ha
# Outline: (§1)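 Pre-emergence spray of a liquid preparation at a prescribed compound concentration. Soybean and wheat injury was scored against a phytotoxicity criterion 14 days after treatment, alongside weed control.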
# wheat (Wh) = assay: as above; conditions: dosage 5 kg/ha
# Outline: as §1
# soybean plant = assay: Test Example 4: phytotoxicity to upland crop plants, treatment after emergence; conditions: dosage 5 kg/ha, sprayed after emergence, judged 14 days after treatment
# Outline: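 Upland weeds and crop plants (soybean, wheat) are grown from seed in soil until they reach given leaf stages, then treated by spraying with the compound-containing agent; effects are judged two weeks later.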
# wheat = assay: as above; conditions: dosage 5 kg/ha, sprayed after emergence, judged 14 days after treatment
# Outline: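 Weeds, soybean and wheat were sown in soil-filled vats, covered with soil and grown to set leaf stages before a post-emergence spray of an agent containing the compound at a prescribed concentration. Weed-killing rate and crop phytotoxicity were assessed 14 days after treatment.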
# [1] = tested on: barnyard grass (Echinochloa crus-galli Beauv.); assay: Test Example 2: herbicidal effect on paddy field weeds after emergence; conditions: Dosage 5 kg/ha; one-leaved stage; 21 days after treatment
# Outline: (§2)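 Weeds in flooded paddy-soil pots were grown to the one-leaved stage, then the soil was treated with the compound solution at a set dosage.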
# [2] = tested on: monochoria (Monochoria vaginalis Presl); assay: as above; conditions: Dosage 5 kg/ha; one-leaved stage; 21 days after treatment
# Outline: as §2
# [3] = tested on: bulrush (Scirpus juncoides Roxb.); assay: as above; conditions: Dosage 5 kg/ha; one-leaved stage; 21 days after treatment
# Outline: as §2
# [4] = tested on: barnyard grass (Echinochloa crus-galli Beauv.), Ec; assay: Test Example 4: herbicidal effect on upland weeds after emergence; conditions: dosage 5 kg/ha; sprayed after emergence; judged 14 days after treatment
# Outline: (§3)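 Weeds and soybean grown in soil-filled vats to set leaf stages, then sprayed post-emergence with the compound at a prescribed concentration. Weed-killing rate and crop phytotoxicity judged 14 days after treatment.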
# [5] = tested on: cocklebur (Xanthium strumarium L.), Xs; assay: as above; conditions: dosage 5 kg/ha; sprayed after emergence; judged 14 days after treatment
# Outline: as §3
# [6] = tested on: cleavers (Galium aparine L.), Ga; assay: as above; conditions: dosage 5 kg/ha; sprayed after emergence; judged 14 days after treatment
# Outline: as §3
# [7] = tested on: bird's eye speedwell (Veronica persica Poir.), Vp; assay: as above; conditions: dosage 5 kg/ha; sprayed after emergence; judged 14 days after treatment
# Outline: as §3
# [8] = tested on: velvetleaf (Abutilon theophtasti L.), At; assay: as above; conditions: dosage 5 kg/ha; sprayed after emergence; judged 14 days after treatment
# Outline: as §3
# [9] = tested on: forxtail grass (Alopecurus aequalis var. amurensis Ohwi), Am; assay: as above; conditions: dosage 5 kg/ha; sprayed after emergence; judged 14 days after treatment
# Outline: as §3
# [10] = tested on: barnyard grass (Echinochloa crus-galli Beauv.), Ec; assay: Test Example 3: herbicidal effect on upland weeds before emergence; conditions: dosage 5 kg/ha
# Outline: (§4)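 Pre-emergence spray of liquid prep, compound at set concentration; read at 14 d post-treatment; weed-kill rate calculated, effect graded.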
# [11] = tested on: cocklebur (Xanthium strumarium L.), Xs; assay: as above; conditions: dosage 5 kg/ha
# Outline: as §4
# [12] = tested on: cleavers (Galium aparine L.), Ga; assay: as above; conditions: dosage 5 kg/ha
# Outline: as §4
# [13] = tested on: bird's eye speedwell (Veronica persica Poir.), Vp; assay: as above; conditions: dosage 5 kg/ha
# Outline: as §4
# [14] = tested on: velvetleaf (Abutilon theophtasti L.), At; assay: as above; conditions: dosage 5 kg/ha
# Outline: as §4
# [15] = tested on: forxtail grass (Alopecurus aequalis var. amurensis Ohwi), Am; assay: as above; conditions: foxtail grass, dosage 5 kg/ha
# Outline: as §4
# [16] = tested on: barnyard grass (Echinochloa crus-galli Beauv.); assay: Test Example 1: herbicidal effect on paddy field weeds before emergence; conditions: Dosage 5 kg/ha
# Outline: (§5)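 Grading reflects percent control relative to untreated plots, evaluated three weeks post-application. Treatment was a soil application of compound solution, predetermined dose, made to paddy-state pots before weed seeds germinated.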
# [17] = tested on: bulrush (Scirpus juncoides Roxb.); assay: as above; conditions: Dosage 5 kg/ha
# Outline: as §5
Compound,Phytotoxicity So (soybean plant (So)),Phytotoxicity Wh (wheat (Wh)),Phytotoxicity So (soybean plant),Phytotoxicity Wh (wheat),Post-emergence treatment Barnyard grass (herbicidal effect) [1],Post-emergence treatment Monochoria (herbicidal effect) [2],Post-emergence treatment Bulrush (herbicidal effect) [3],Herbicidal effect Ec [4],Herbicidal effect Xs [5],Herbicidal effect Ga [6],Herbicidal effect Vp [7],Herbicidal effect At [8],Herbicidal effect Am [9],Herbicidal effect Ec [10],Herbicidal effect Xs [11],Herbicidal effect Ga [12],Herbicidal effect Vp [13],Herbicidal effect At [14],Herbicidal effect Am [15],Pre-emergence treatment Barnyard grass (herbicidal effect) [16],other results
CCNC(=O)c1nc2ccc(OC)cc2cc1C(=O)Nc1c(CC)ccc(Cl)c1CC [compound 289],1 (Crop-killing rate is 1-39%.),2 (Crop-killing rate is 40-69%.),1 (Crop-killing rate is 1-39%.),2 (Crop-killing rate is 40-69%.),5 (Weed-killing rate is 100%.),5 (Weed-killing rate is 100%.),4 (Weed-killing rate is 90-99%.),5 (Weed-killing rate is 100%.),3 (Weed-killing rate is 70-89%.),4 (Weed-killing rate is 90-99%.),5 (Weed-killing rate is 100%.),5 (Weed-killing rate is 100%.),4 (Weed-killing rate is 90-99%.),5 (Weed-killing rate is 100%.),3 (Weed-killing rate is 70-89%.),4 (Weed-killing rate is 90-99%.),5 (Weed-killing rate is 100%.),5 (Weed-killing rate is 100%.),4 (Weed-killing rate is 90-99%.),5 (Weed-killing rate is 100%.),Pre-emergence treatment Bulrush (herbicidal effect) [17]: 5 (Weed-killing rate is 100%.)
CCCNC(=O)c1nc2ccc(OC)cc2cc1C(=O)Nc1c(CC)ccc(Cl)c1CC [compound 290],1 (Crop-killing rate is 1-39%.),2 (Crop-killing rate is 40-69%.),2 (Crop-killing rate is 40-69%.),3 (Crop-killing rate is 70-89%.),5 (Weed-killing rate is 100%.),5 (Weed-killing rate is 100%.),5 (Weed-killing rate is 100%.),5 (Weed-killing rate is 100%.),4 (Weed-killing rate is 90-99%.),5 (Weed-killing rate is 100%.),5 (Weed-killing rate is 100%.),5 (Weed-killing rate is 100%.),5 (Weed-killing rate is 100%.),5 (Weed-killing rate is 100%.),4 (Weed-killing rate is 90-99%.),5 (Weed-killing rate is 100%.),5 (Weed-killing rate is 100%.),5 (Weed-killing rate is 100%.),5 (Weed-killing rate is 100%.),5 (Weed-killing rate is 100%.),Pre-emergence treatment Bulrush (herbicidal effect) [17]: 5 (Weed-killing rate is 100%.)
CCc1ccc(Cl)c(CC)c1NC(=O)c1cc2cc(OC)ccc2nc1C(=O)NOC(C)C [compound 291],0 (Crop-killing rate is 0-20% (No Phytotoxicity).),1 (Crop-killing rate is 1-39%.),2 (Crop-killing rate is 40-69%.),2 (Crop-killing rate is 40-69%.),5 (Weed-killing rate is 100%.),5 (Weed-killing rate is 100%.),4 (Weed-killing rate is 90-99%.),5 (Weed-killing rate is 100%.),4 (Weed-killing rate is 90-99%.),4 (Weed-killing rate is 90-99%.),5 (Weed-killing rate is 100%.),5 (Weed-killing rate is 100%.),4 (Weed-killing rate is 90-99%.),5 (Weed-killing rate is 100%.),4 (Weed-killing rate is 90-99%.),5 (Weed-killing rate is 100%.),5 (Weed-killing rate is 100%.),5 (Weed-killing rate is 100%.),4 (Weed-killing rate is 90-99%.),5 (Weed-killing rate is 100%.),Pre-emergence treatment Bulrush (herbicidal effect) [17]: 4 (Weed-killing rate is 90-99%.)
CCCNC(=O)c1nc2cc(OC)c(OC)cc2cc1C(=O)Nc1c(CC)ccc(Cl)c1CC [compound 305],0 (Crop-killing rate is 0-20% (No Phytotoxicity).),2 (Crop-killing rate is 40-69%.),1 (Crop-killing rate is 1-39%.),2 (Crop-killing rate is 40-69%.),4 (Weed-killing rate is 90-99%.),5 (Weed-killing rate is 100%.),3 (Weed-killing rate is 70-89%.),4 (Weed-killing rate is 90-99%.),2 (Weed-killing rate is 40-69%.),2 (Weed-killing rate is 40-69%.),4 (Weed-killing rate is 90-99%.),4 (Weed-killing rate is 90-99%.),3 (Weed-killing rate is 70-89%.),5 (Weed-killing rate is 100%.),3 (Weed-killing rate is 70-89%.),3 (Weed-killing rate is 70-89%.),4 (Weed-killing rate is 90-99%.),4 (Weed-killing rate is 90-99%.),4 (Weed-killing rate is 90-99%.),5 (Weed-killing rate is 100%.),Pre-emergence treatment Bulrush (herbicidal effect) [17]: 4 (Weed-killing rate is 90-99%.)
CCc1ccc(Cl)c(CC)c1NC(=O)c1cc2cc(OC)c(OC)cc2nc1C(=O)NCC(C)C [compound 310],0 (Crop-killing rate is 0-20% (No Phytotoxicity).),2 (Crop-killing rate is 40-69%.),0 (Crop-killing rate is 0-20% (No Phytotoxicity).),2 (Crop-killing rate is 40-69%.),3 (Weed-killing rate is 70-89%.),5 (Weed-killing rate is 100%.),2 (Weed-killing rate is 40-69%.),4 (Weed-killing rate is 90-99%.),3 (Weed-killing rate is 70-89%.),2 (Weed-killing rate is 40-69%.),3 (Weed-killing rate is 70-89%.),4 (Weed-killing rate is 90-99%.),3 (Weed-killing rate is 70-89%.),4 (Weed-killing rate is 90-99%.),3 (Weed-killing rate is 70-89%.),3 (Weed-killing rate is 70-89%.),4 (Weed-killing rate is 90-99%.),4 (Weed-killing rate is 90-99%.),4 (Weed-killing rate is 90-99%.),4 (Weed-killing rate is 90-99%.),Pre-emergence treatment Bulrush (herbicidal effect) [17]: 3 (Weed-killing rate is 70-89%.)
